Test results published in patent US10738028B2, “Spiro three-membered ring, spiro five-membered ring peptide deformylase inhibitor and use thereof in antibacteria and anti-tumor” (priority 2016, dated 2020).

Legend:
Type in all cases: cell-based
[1] = tested on: HCT-116 colorectal cancer cell line; test: CCK-8 proliferation inhibition; conditions: concentration of 30 μM; 72 hours; CCK-8; 30 µM
Summary of the method: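 Proliferation over 72 hours of compound treatment was measured with CCK-8 against a 1‰ DMSO control.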

[2] = tested on: Moraxella catarrhalis (BCA); test: MIC, two-fold agar dilution (CLSI), clinical isolates
Summary of the method: (§1)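 MIC values come from two-fold agar dilution run per CLSI antimicrobial susceptibility testing procedure.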

[3] = tested on: Streptococcus pneoumoniae (SPN); test: as above
Summary of the method: as §1

[4] = tested on: Enterococcus faecium (EFM); test: as above
Summary of the method: as §1

[5] = tested on: Enterococcus faecalis (EFA); test: as above
Summary of the method: as §1

[6] = tested on: methicillin-resistant Staphylococcus epidermidis (MRSE); test: as above
Summary of the method: as §1

[7] = tested on: methicillin-sensitive Staphylococcus epidermidis (MSSE); test: as above
Summary of the method: as §1

[8] = tested on: Escherichia coli (including ESBLs, non-ESBLs); test: as above
Summary of the method: as §1

[9] = tested on: methicillin-resistant Staphylococcus aureus (MRSA); test: as above
Summary of the method: as §1

[10] = tested on: methicillin-sensitive Staphylococcus aureus (MSSA); test: as above
Summary of the method: as §1

[11] = tested on: MGC-803 gastric cancer cell line; test: CCK-8 proliferation inhibition; conditions: concentration of 30 μM, 72 hours, 30 µM
Summary of the method: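 Using media specific to each line (1640 for MGC-803 and Jurkat, F12 for PC3, DMEM high glucose for MCF-7, each with 10% newborn bovine serum), cells at 2000/well were treated for 72 h with serially formulated compounds, then assessed with CCK-8 diluted 1:10.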

[12] = tested on: A549 lung cancer cell line; test: CCK-8 proliferation inhibition; conditions: concentration of 30 μM
Summary of the method: (§2)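 Plating at 2000 cells/well, then incubation overnight at 37° C. Next, a range of compound concentrations for 72 hours (control 1‰ DMSO). Finally, medium decanted and CCK-8 diluted 1:10 added.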

[13] = tested on: BEL-7402 liver cancer cell line; test: CCK-8 proliferation inhibition; conditions: concentration of 30 μM, 72 hours, 30 µM
Summary of the method: as §2

Cc1cnc(NC(=O)[C@@H]2CC3(CC3)CN2C(=O)[C@@H](CC(=O)NO)CC2CCCC2)s1 [Example 65]
HCT116 inhibition rate/% [1]: 83%
Anti-bacterial activity (MIC), strain BCA 14-1 ([2]; clinical isolate BCA 14-1): 0.5 mg/L
Anti-bacterial activity (MIC), strain BCA 14-4 ([2]; clinical isolate BCA 14-4): 0.5 mg/L
Anti-bacterial activity (MIC), strain BCA 14-5 ([2]; clinical isolate BCA 14-5): 0.125 mg/L
Anti-bacterial activity (MIC), strain BCA 14-6 ([2]; clinical isolate BCA 14-6): 0.125 mg/L
Anti-bacterial activity (MIC), strain BCA 14-7 ([2]; clinical isolate BCA 14-7): 0.5 mg/L
Anti-bacterial activity (MIC), strain BCA 14-8 ([2]; clinical isolate BCA 14-8): 0.5 mg/L
Anti-bacterial activity (MIC), strain BCA 14-10 ([2]; clinical isolate BCA 14-10): 0.125 mg/L
Anti-bacterial activity (MIC), strain SPN 16-2 ([3]; clinical isolate SPN 16-2): 0.125 mg/L
Anti-bacterial activity (MIC), strain SPN 16-4 ([3]; clinical isolate SPN 16-4): 0.06 mg/L
Anti-bacterial activity (MIC), strain EFM 15-1 ([4]; clinical isolate EFM 15-1): > 32 mg/L
Anti-bacterial activity (MIC), strain EFM 15-2 ([4]; clinical isolate EFM 15-2): > 32 mg/L
Anti-bacterial activity (MIC), strain EFM 15-3 ([4]; clinical isolate EFM 15-3): > 32 mg/L
Anti-bacterial activity (MIC), strain EFM 15-4 ([4]; clinical isolate EFM 15-4): 0.25 mg/L
Anti-bacterial activity (MIC), strain EFM 15-5 ([4]; clinical isolate EFM 15-5): 0.125 mg/L
Anti-bacterial activity (MIC), strain EFM 15-6 ([4]; clinical isolate EFM 15-6): 1 mg/L
Anti-bacterial activity (MIC), strain EFA 15-1 ([5]; clinical isolate EFA 15-1): 32 mg/L
Anti-bacterial activity (MIC), strain EFA 15-2 ([5]; clinical isolate EFA 15-2): 32 mg/L
Anti-bacterial activity (MIC), strain EFA 15-3 ([5]; clinical isolate EFA 15-3): 32 mg/L
Anti-bacterial activity (MIC), strain EFA 15-4 ([5]; clinical isolate EFA 15-4): 32 mg/L
Anti-bacterial activity (MIC), strain EFA 15-5 ([5]; clinical isolate EFA 15-5): 32 mg/L
Anti-bacterial activity (MIC), strain EFA 15-6 ([5]; clinical isolate EFA 15-6): > 32 mg/L
Anti-bacterial activity (MIC), strain EFA 15-9 ([5]; clinical isolate EFA 15-9): 4 mg/L
Anti-bacterial activity (MIC), strain MRSE 15-1 ([6]; clinical isolate MRSE 15-1): 0.015 mg/L
Anti-bacterial activity (MIC), strain MRSE 15-2 ([6]; clinical isolate MRSE 15-2): 0.125 mg/L
Anti-bacterial activity (MIC), strain MRSE 15-3 ([6]; clinical isolate MRSE 15-3): 0.125 mg/L
Anti-bacterial activity (MIC), strain MRSE 15-7 ([6]; clinical isolate MRSE 15-7): 0.125 mg/L
Anti-bacterial activity (MIC), strain MSSE 15-4 ([7]; clinical isolate MSSE 15-4): 0.125 mg/L
Anti-bacterial activity (MIC), strain MSSE 15-5 ([7]; clinical isolate MSSE 15-5): 0.06 mg/L
Anti-bacterial activity (MIC), strain MSSE 15-6 ([7]; clinical isolate MSSE 15-6): 0.015 mg/L
Anti-bacterial activity (MIC), strain ECO+ 15-1 ([8]; clinical isolate ECO+ 15-1): 8 mg/L
Anti-bacterial activity (MIC), strain ECO+ 15-2 ([8]; clinical isolate ECO+ 15-2): 8 mg/L
Anti-bacterial activity (MIC), strain ECO+ 15-3 ([8]; clinical isolate ECO+ 15-3): 16 mg/L
Anti-bacterial activity (MIC), strain ECO+ 15-4 ([8]; clinical isolate ECO+ 15-4): 16 mg/L
Anti-bacterial activity (MIC), strain ECO− 15-1 ([8]; clinical isolate ECO− 15-1): 8 mg/L
Anti-bacterial activity (MIC), strain ECO− 15-2 ([8]; clinical isolate ECO− 15-2): 16 mg/L
Anti-bacterial activity (MIC), strain ECO− 15-3 ([8]; clinical isolate ECO− 15-3): 16 mg/L
Anti-bacterial activity (MIC), strain ECO− 15-4 ([8]; clinical isolate ECO− 15-4): 8 mg/L
Anti-bacterial activity (MIC), strain MRSA 15-1 ([9]; clinical isolate MRSA 15-1): 0.06 mg/L
Anti-bacterial activity (MIC), strain MRSA 15-2 ([9]; clinical isolate MRSA 15-2): 0.125 mg/L
Anti-bacterial activity (MIC), strain MRSA 15-3 ([9]; clinical isolate MRSA 15-3): 0.06 mg/L
Anti-bacterial activity (MIC), strain MRSA 15-4 ([9]; clinical isolate MRSA 15-4): 0.125 mg/L
Anti-bacterial activity (MIC), strain MSSA 15-3 ([10]; clinical isolate MSSA 15-3): 0.125 mg/L
Anti-bacterial activity (MIC), strain MSSA 15-4 ([10]; clinical isolate MSSA 15-4): 0.015 mg/L
Anti-bacterial activity (MIC), strain MSSA 15-5 ([10]; clinical isolate MSSA 15-5): 0.015 mg/L
Anti-bacterial activity (MIC), strain MSSA 15-6 ([10]; clinical isolate MSSA 15-6): 16 mg/L
Inhibition of proliferation, Gastric cancer MGC-803 [11]: 72%
inhibition at 30 µM ([12]; Homo sapiens, A549, 72 h): > 50%
Inhibition of proliferation, Lung cancer A549 ([12]; 72 hours, 30 µM): 67%
Inhibition of proliferation, Liver cancer BEL-7402 [13]: 81%
